Experimental data as given in ChEMBL document CHEMBL4765228, “Indole-like Trk receptor antagonists” (Eur J Med Chem, 2016).

How the values were obtained:
[1] = biological target: RAC-alpha serine/threonine-protein kinase (Homo sapiens) (UniProt P31749); experiment: Inhibition of human AKT1 (104 to 408 residues) assessed as residual activity at 0.1 uM relative to control
[2] = biological target: Serine/threonine-protein kinase Chk2 (Homo sapiens) (UniProt O96017); experiment: Inhibition of human CHK2 assessed as residual activity at 0.1 uM relative to control
[3] = biological target: Casein kinase I isoform delta (Homo sapiens) (UniProt P48730); experiment: Inhibition of human CK1-delta assessed as residual activity at 0.1 uM relative to control
[4] = biological target: Casein kinase I isoform delta (Homo sapiens) (UniProt P48730); experiment: Inhibition of human CK1-delta assessed as residual activity at 1 uM relative to control
[5] = biological target: Casein kinase II subunit alpha (Homo sapiens) (UniProt P68400); experiment: Inhibition of human CK2alpha1 assessed as residual activity at 0.1 uM relative to control
[6] = biological target: Dual specificity tyrosine-phosphorylation-regulated kinase 1A (Homo sapiens) (UniProt Q13627); experiment: Inhibition of human DYRK1A assessed as residual activity at 1 uM relative to control
[7] = biological target: Receptor tyrosine-protein kinase erbB-4 (Homo sapiens) (UniProt Q15303); experiment: Inhibition of human ERBB4 assessed as residual activity at 1 uM relative to control
[8] = biological target: Glycogen synthase kinase-3 beta (Homo sapiens) (UniProt P49841); experiment: Inhibition of human GSK3-beta assessed as residual activity at 1 uM relative to control
[9] = biological target: Homeodomain-interacting protein kinase 2 (Homo sapiens) (UniProt Q9H2X6); experiment: Inhibition of human HIPK2 assessed as residual activity at 0.1 uM relative to control
[10] = biological target: Insulin-like growth factor 1 receptor (Homo sapiens) (UniProt P08069); experiment: Inhibition of human IGF1R assessed as residual activity at 1 uM relative to control
[11] = biological target: Mitogen-activated protein kinase 8 (Homo sapiens) (UniProt P45983); experiment: Inhibition of human JNK1 assessed as residual activity at 1 uM relative to control
[12] = biological target: Tyrosine-protein kinase Lck (Homo sapiens) (UniProt P06239); experiment: Inhibition of human LCK assessed as residual activity at 1 uM relative to control
[13] = biological target: Mitogen-activated protein kinase kinase kinase 11 (Homo sapiens) (UniProt Q16584); experiment: Inhibition of human MAP3K11 assessed as residual activity at 0.1 uM relative to control
[14] = biological target: Serine/threonine-protein kinase Nek6 (Homo sapiens) (UniProt Q9HC98); experiment: Inhibition of human NEK6 assessed as residual activity at 0.1 uM relative to control
[15] = biological target: Serine/threonine-protein kinase Nek6 (Homo sapiens) (UniProt Q9HC98); experiment: Inhibition of human NEK6 assessed as residual activity at 1 uM relative to control
[16] = biological target: Serine/threonine-protein kinase pim-1 (Homo sapiens) (UniProt P11309); experiment: Inhibition of human PIM1 assessed as residual activity at 0.1 uM relative to control
Homo sapiens [17] = species: Homo sapiens; experiment: Inhibition of human PKA assessed as residual activity at 0.1 uM relative to control
[18] = biological target: Serine/threonine-protein kinase PLK1 (Homo sapiens) (UniProt P53350); experiment: Inhibition of human PLK1 assessed as residual activity at 0.1 uM relative to control
[19] = biological target: Receptor-interacting serine/threonine-protein kinase 2 (Homo sapiens) (UniProt O43353); experiment: Inhibition of human RIPK2 assessed as residual activity at 0.1 uM relative to control
[20] = biological target: Receptor-interacting serine/threonine-protein kinase 2 (Homo sapiens) (UniProt O43353); experiment: Inhibition of human RIPK2 assessed as residual activity at 1 uM relative to control
[21] = biological target: Ribosomal protein S6 kinase alpha-5 (Homo sapiens) (UniProt O75582); experiment: Inhibition of human RPS6KA5 assessed as residual activity at 0.1 uM relative to control
Homo sapiens [22] = species: Homo sapiens; experiment: Inhibition of human S6K assessed as residual activity at 1 uM relative to control
[23] = biological target: T1, Serine/threonine-protein kinase Sgk1 (Homo sapiens) (UniProt O00141); experiment: Inhibition of human SGK1 assessed as residual activity at 1 uM relative to control
T1 sequence (whole entry): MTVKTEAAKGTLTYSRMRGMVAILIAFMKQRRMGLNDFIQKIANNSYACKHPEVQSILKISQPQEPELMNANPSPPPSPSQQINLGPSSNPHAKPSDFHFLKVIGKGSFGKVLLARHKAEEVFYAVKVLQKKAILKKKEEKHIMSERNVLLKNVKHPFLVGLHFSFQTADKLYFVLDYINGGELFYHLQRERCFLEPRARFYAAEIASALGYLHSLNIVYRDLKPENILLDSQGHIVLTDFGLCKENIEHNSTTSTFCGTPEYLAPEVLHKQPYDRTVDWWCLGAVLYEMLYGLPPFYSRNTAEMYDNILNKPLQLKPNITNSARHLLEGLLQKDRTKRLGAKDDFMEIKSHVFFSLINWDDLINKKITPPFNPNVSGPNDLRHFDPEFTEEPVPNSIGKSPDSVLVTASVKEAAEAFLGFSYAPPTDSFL

[24] = biological target: T2, Serine/threonine-protein kinase TBK1 (Homo sapiens) (UniProt Q9UHD2); experiment: Inhibition of human TBK1 assessed as residual activity at 0.1 uM relative to control
T2 sequence (whole entry): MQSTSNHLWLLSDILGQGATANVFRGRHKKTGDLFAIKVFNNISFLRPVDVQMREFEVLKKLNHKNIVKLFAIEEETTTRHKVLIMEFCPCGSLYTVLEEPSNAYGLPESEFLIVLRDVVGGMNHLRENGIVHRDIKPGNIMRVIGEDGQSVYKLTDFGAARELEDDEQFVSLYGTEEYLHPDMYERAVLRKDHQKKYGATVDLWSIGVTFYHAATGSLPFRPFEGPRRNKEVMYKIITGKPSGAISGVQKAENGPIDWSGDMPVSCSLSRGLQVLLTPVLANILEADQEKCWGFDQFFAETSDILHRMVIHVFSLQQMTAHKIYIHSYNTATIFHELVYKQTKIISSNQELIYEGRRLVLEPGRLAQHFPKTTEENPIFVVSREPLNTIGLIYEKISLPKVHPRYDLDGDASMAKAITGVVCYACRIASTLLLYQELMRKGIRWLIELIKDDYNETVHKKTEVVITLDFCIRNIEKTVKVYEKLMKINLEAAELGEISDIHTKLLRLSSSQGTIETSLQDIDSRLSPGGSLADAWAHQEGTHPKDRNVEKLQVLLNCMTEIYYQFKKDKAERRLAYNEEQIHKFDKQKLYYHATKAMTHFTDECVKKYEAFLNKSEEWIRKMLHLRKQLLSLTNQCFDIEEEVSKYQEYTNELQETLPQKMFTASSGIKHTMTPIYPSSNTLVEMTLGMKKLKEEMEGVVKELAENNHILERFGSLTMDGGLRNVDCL

[25] = biological target: T2, Serine/threonine-protein kinase TBK1 (Homo sapiens); experiment: Inhibition of human TBK1 assessed as residual activity at 1 uM relative to control
[26] = biological target: Vascular endothelial growth factor receptor 1 (Homo sapiens) (UniProt P17948); experiment: Inhibition of human VEGFR1 assessed as residual activity at 1 uM relative to control

Casein kinase I isoform delta (Homo sapiens), sequence (P48730 whole entry, looked up, canonical isoform): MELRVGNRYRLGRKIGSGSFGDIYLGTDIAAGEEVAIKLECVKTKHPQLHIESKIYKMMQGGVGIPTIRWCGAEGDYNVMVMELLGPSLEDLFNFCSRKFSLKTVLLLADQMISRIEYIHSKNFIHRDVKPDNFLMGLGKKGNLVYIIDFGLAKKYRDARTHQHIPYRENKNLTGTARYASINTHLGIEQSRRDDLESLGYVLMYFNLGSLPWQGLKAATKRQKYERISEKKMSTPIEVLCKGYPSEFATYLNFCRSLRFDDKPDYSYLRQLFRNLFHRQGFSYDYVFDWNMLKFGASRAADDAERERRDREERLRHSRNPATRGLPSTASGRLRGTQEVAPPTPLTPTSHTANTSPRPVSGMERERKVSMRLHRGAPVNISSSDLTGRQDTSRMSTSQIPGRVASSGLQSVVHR
Tyrosine-protein kinase Lck (Homo sapiens), sequence (P06239 2-509 limits assumed): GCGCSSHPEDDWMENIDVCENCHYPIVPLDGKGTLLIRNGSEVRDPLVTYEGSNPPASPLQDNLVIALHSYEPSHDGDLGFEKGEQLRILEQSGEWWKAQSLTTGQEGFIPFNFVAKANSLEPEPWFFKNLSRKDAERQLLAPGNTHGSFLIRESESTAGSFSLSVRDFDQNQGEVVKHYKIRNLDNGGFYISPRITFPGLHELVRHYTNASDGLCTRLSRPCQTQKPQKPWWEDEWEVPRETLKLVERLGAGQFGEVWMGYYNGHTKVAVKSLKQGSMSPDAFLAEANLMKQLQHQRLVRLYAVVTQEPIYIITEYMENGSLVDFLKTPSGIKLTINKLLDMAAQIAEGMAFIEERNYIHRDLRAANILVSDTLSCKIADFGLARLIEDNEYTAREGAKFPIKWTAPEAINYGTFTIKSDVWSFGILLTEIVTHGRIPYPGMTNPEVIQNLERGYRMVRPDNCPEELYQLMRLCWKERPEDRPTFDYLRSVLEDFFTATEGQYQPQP
Serine/threonine-protein kinase PLK1 (Homo sapiens), sequence (P53350 whole entry): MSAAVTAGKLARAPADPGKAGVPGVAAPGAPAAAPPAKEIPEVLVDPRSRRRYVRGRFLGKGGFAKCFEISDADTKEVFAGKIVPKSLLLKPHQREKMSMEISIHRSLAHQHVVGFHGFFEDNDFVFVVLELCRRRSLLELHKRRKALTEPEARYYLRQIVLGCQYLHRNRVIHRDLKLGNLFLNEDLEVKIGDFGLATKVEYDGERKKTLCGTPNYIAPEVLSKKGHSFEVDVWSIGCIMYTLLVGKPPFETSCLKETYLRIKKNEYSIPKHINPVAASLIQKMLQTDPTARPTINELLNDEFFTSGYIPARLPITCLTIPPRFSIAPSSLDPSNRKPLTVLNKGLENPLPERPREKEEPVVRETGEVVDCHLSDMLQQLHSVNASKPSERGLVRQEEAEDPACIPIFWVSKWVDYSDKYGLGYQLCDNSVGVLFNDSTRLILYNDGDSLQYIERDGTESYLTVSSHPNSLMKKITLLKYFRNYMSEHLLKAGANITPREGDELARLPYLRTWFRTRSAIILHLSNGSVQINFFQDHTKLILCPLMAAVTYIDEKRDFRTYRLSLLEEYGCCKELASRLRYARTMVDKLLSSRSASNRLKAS
Serine/threonine-protein kinase pim-1 (Homo sapiens), sequence (P11309 whole entry, looked up): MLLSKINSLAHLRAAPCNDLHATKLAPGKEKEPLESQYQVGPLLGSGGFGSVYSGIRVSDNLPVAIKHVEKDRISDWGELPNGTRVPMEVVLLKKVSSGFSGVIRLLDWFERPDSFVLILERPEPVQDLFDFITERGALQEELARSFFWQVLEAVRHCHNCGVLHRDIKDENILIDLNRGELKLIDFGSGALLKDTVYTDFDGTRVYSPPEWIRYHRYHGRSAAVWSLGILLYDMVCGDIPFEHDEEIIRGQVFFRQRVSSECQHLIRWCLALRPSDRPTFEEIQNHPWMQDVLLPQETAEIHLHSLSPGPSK
Insulin-like growth factor 1 receptor (Homo sapiens), sequence (P08069 31-736 limits assumed): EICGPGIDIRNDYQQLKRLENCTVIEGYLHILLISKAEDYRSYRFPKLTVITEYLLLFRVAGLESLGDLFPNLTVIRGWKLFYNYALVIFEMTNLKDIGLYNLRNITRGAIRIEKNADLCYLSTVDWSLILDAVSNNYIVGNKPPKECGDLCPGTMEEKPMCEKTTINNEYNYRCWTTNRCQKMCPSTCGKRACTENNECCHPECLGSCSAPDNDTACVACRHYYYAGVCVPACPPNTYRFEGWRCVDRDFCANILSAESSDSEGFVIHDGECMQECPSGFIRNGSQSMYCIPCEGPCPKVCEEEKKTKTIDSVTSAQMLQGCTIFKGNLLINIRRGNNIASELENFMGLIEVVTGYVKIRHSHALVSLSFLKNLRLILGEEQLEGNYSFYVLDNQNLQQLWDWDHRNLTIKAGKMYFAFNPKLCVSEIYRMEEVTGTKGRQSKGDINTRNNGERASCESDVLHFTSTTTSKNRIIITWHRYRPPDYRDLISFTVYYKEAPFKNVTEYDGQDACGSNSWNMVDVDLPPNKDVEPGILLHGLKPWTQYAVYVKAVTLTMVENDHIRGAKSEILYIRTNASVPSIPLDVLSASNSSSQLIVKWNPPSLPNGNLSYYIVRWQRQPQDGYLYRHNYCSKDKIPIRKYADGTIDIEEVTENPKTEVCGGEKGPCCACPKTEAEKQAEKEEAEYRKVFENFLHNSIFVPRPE
Insulin-like growth factor 1 receptor (Homo sapiens), sequence (P08069 741-1367 limits assumed): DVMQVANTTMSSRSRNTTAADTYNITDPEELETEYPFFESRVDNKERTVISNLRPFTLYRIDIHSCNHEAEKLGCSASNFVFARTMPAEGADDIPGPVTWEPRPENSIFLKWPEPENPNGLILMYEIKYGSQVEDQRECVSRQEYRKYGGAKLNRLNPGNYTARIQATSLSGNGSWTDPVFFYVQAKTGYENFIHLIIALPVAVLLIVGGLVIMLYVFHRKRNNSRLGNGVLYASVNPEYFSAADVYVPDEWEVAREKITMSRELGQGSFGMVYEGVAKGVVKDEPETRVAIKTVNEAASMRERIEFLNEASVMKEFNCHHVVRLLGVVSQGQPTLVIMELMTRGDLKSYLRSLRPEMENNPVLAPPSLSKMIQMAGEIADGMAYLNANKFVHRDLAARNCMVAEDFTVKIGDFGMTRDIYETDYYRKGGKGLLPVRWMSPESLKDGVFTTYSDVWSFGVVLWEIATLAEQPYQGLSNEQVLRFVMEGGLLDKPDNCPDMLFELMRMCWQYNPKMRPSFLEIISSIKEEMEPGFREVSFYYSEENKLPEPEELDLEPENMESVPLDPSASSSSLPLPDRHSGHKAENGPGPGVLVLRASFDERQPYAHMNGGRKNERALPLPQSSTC
Receptor tyrosine-protein kinase erbB-4 (Homo sapiens), sequence (Q15303 whole entry): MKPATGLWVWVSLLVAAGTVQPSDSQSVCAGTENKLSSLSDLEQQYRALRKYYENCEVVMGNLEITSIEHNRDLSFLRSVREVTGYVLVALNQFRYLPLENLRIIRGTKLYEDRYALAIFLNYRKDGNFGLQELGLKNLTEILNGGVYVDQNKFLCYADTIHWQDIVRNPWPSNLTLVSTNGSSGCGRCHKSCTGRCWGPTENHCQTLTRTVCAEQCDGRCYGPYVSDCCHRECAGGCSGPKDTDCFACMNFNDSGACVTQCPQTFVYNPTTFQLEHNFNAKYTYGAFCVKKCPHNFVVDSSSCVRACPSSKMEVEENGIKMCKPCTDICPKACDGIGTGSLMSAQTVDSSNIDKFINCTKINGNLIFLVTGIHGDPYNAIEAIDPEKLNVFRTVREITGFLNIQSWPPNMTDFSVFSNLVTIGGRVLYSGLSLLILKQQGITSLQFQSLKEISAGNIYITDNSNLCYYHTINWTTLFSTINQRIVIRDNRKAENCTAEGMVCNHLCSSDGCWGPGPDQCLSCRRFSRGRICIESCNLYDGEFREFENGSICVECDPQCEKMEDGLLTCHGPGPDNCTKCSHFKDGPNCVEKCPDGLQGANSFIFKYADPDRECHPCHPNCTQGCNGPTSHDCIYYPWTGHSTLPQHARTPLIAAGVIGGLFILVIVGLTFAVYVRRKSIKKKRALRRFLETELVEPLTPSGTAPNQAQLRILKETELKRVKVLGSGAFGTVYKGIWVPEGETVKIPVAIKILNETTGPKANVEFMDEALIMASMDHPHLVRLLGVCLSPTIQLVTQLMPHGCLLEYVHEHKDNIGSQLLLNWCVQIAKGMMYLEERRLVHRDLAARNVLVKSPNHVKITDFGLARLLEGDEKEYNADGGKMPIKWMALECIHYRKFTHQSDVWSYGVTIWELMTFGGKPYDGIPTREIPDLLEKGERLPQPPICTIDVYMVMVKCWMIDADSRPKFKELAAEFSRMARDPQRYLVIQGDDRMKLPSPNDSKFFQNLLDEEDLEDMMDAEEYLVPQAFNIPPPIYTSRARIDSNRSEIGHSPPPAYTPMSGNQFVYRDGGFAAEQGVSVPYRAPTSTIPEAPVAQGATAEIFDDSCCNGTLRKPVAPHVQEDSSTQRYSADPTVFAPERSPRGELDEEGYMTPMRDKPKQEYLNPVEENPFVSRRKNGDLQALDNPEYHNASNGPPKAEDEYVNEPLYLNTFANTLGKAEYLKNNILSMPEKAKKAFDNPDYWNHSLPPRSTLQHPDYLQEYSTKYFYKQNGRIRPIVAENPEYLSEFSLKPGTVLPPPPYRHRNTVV
Mitogen-activated protein kinase 8 (Homo sapiens), sequence (P45983 whole entry): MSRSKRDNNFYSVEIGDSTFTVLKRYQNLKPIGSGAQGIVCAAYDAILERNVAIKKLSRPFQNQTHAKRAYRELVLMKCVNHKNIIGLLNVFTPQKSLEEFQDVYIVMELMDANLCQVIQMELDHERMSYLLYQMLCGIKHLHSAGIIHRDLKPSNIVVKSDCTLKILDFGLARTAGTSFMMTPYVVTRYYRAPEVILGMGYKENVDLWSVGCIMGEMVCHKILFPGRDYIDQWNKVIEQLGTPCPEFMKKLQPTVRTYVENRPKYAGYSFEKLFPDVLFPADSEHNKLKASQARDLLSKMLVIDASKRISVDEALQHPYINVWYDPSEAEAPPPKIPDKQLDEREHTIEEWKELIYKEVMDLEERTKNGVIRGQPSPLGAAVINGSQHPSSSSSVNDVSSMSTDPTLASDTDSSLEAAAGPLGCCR

Row | SMILES | Activity [1] | Activity [2] | Activity [3] | Activity [4] | Activity [5] | Activity [6] | Activity [7] | Activity [8] | Activity [9] | Activity [10] | Activity [11] | Activity [12] | Activity [13] | Activity [14] | Activity [15] | Activity [16] | Activity (Homo sapiens [17]) | Activity [18] | Activity [19] | Activity [20] | further results
1 | COc1ccc2[nH]cc(/C=C3\C(=O)Nc4ccc(S(N)(=O)=O)cc43)c2c1 | 115% | 59% | 92% | 79% | 90% | 96% | 60% | 79% | 124% | 97% | 87% | 61% | 66% | 117% | 108% | 103% | 88% | 93% | 96% | 48% | Activity [21]: 93%; Activity (Homo sapiens [22]): 70%; Activity [23]: 49%; Activity [24]: 96%; Activity [25]: 62%; Activity [26]: 76%
2 | Cn1cc(/C=C2\C(=O)Nc3ccc(S(N)(=O)=O)cc32)c2ccccc21 | 92% | 9% | 88% | 82% | 102% | 114% | 101% | 92% | 112% | 107% | 94% | 50% | 36% | 111% | 109% | 105% | 94% | 102% | 102% | 84% | Activity [21]: 99%; Activity (Homo sapiens [22]): 81%; Activity [23]: 55%; Activity [24]: 75%; Activity [25]: 58%; Activity [26]: 81%
3 | CN(C)S(=O)(=O)c1ccc2c(c1)/C(=C/c1cn(C)c3ccc(O)cc13)C(=O)N2 | 105% | 94% | 88% | 87% | 97% | 101% | 95% | 92% | 120% | 95% | 97% | 33% | 80% | 104% | 103% | 102% | 94% | 93% | 94% | 89% | Activity [21]: 106%; Activity (Homo sapiens [22]): 92%; Activity [23]: 81%; Activity [24]: 96%; Activity [25]: 81%; Activity [26]: 93%

Further lines, with some results ahead:

Row | Activity [1] | Activity [2] | Activity [3] | Activity [4] | Activity [5] | Activity [6] | Activity [7] | Activity [8] | Activity [9] | Activity [10] | Activity [11] | Activity [12] | Activity [13] | Activity [14] | Activity [15] | Activity [16] | Activity (Homo sapiens [17]) | Activity [18] | Activity [19] | Activity [20] | SMILES | further results
4 | 93% | 93% | 89% | 91% | 105% | 95% | 42% | 90% | 106% | 60% | 112% | 41% | 76% | 99% | 97% | 94% | 91% | 92% | 108% | 100% | CNS(=O)(=O)c1ccc2c(c1)/C(=C/c1cn(C)c3ccc(OC)cc13)C(=O)N2 | Activity [21]: 96%; Activity (Homo sapiens [22]): 83%; Activity [23]: 81%; Activity [24]: 97%; Activity [25]: 93%; Activity [26]: 59%
5 | 92% | 35% | 87% | 84% | 101% | 99% | 87% | 83% | 108% | 100% | 95% | 32% | 34% | 106% | 98% | 96% | 91% | 93% | 100% | 97% | COc1ccc2c(c1)c(/C=C1\C(=O)Nc3ccc(S(N)(=O)=O)cc31)cn2C | Activity [21]: 103%; Activity (Homo sapiens [22]): 92%; Activity [23]: 75%; Activity [24]: 79%; Activity [25]: 55%; Activity [26]: 85%
